Test results as given in publication PMC4403932 (Journal of Medicinal Chemistry, 2015).
Where “and” joins values, the source holds several entries; their conditions need not be identical. Equal values may be shown once. Entries after “also recorded” stand apart in the source; their conditions may differ. Read-outs that look alike come from different tables or passages of the source.

Assays:
[1] = molecular target: T1, full length BRD4 (Homo sapiens, UniProt O60885); test: NanoBRET assay, NanoLuc-BRD4 full-length / histone H3.3-HaloTag in HEK293 cells; assay type: cell-based; conditions: up to 33 μM, 18 h
T1 construct: NanoLuc-fused full length BRD4 (UniProt code O60885); expressed in transfected cells; host or cells: HEK293
Procedure: Twenty hours post-transfection 2 × 10^4 cells were trypsinized, washed with PBS, and exchanged into media containing phenol red-free DMEM, 10% FBS in the absence (control sample), or the presence (experimental sample) of 100 nM NanoBRET 618 fluorescent ligand (Promega). Cell density was adjusted to 2 × 10^5 cells/mL and then replated in a 96-well assay white plate (Corning Costar no. 3917). At the time of replating compound 7d or 11 were added at a final concentration spanning from 0.005 to 33 μM and the plates were incubated for 18 h at 37 °C in the presence of 5% CO2. NanoBRET substrate (Promega) was added to both control and experimental samples at a final concentration of 10 μM. Readings were performed within 5 min using the CLARIOstar reader (BMG Lifetechnologies) equipped with 450/80 nm bandpass and 610 nm long-pass filters. A corrected BRET ratio was calculated and is defined as the ratio of the emission at 610 nm/450 nm for experimental samples (i.e., those treated with NanoBRET fluorescent ligand) subtracted by and the emission at 610 nm/450 nm for control samples (not treated with NanoBRET fluorescent). BRET ratios are expressed as milliBRET units (mBU), where 1 mBU corresponds to the corrected BRET ratio multiplied by 1000.

[2] = molecular target: T2, BRD4(2) (Homo sapiens, UniProt O60885); test: Protein stability (thermal) shift assay, BRD4(2); assay type: binding; conditions: compound 10 μM, protein 2 μM; average of triplicate
T2 construct: made in house

[3] = molecular target: T3, BRD4(1) (Homo sapiens, UniProt O60885); test: Isothermal titration calorimetry, BRD4(1); assay type: binding; conditions: for Kd / TΔS / ΔG / N (stoichiometry) / ΔHobs: ITC; for LE (ligand efficiency): LE = ΔG/N, N number of non-hydrogen atoms
T3 construct: made in house
Procedure: (§1) Experiments were carried out on an ITC200 titration microcalorimeter from MicroCal, LLC (GE Healthcare) equipped with a Washing module, with a cell volume of 0.2003 mL, and a 40 μL microsyringe. Experiments were carried out at 15 °C while stirring at 1000 rpm, in ITC buffer (50 mM HEPES, pH 7.5 (at 25 °C), 150 mM NaCl). The microsyringe was loaded with a solution of the protein sample (300−740 μM protein for BRD9 and BRD4(1), respectively, in ITC buffer) and was carefully inserted into the calorimetric cell which was filled with an amount of the ligand (0.2 mL, 20–25 μM in ITC buffer). The system was first allowed to equilibrate until the cell temperature reached 15 °C, and an additional delay of 60 s was applied. All titrations were conducted using an initial control injection of 0.3 μL followed by 38 identical injections of 1 μL with a duration of 2 s (per injection) and a spacing of 120 s between injections. The titration experiments were designed in such a fashion as to ensure complete saturation of the proteins before the final injection. The heat of dilution for the proteins was independent of their concentration and corresponded to the heat observed from the last injection, following saturation of ligand binding, thus facilitating the estimation of the baseline of each titration from the last injection. The collected data were corrected for protein heats of dilution (measured on separate experiments by titrating the proteins into ITC buffer) and deconvoluted using the MicroCal Origin software supplied with the instrument to yield enthalpies of binding (ΔH) and binding constants (KB) in the same fashion as that previously described in detail by Wiseman and co-workers.[66] Thermodynamic parameters were calculated using the basic equation of thermodynamics (ΔG = ΔH – TΔS = −RT ln KB, where ΔG, ΔH, and ΔS are the changes in free energy, enthalpy, and entropy of binding, respectively). In all cases a single binding site model was employed, supplied with the MicroCal Origin software package.

[4] = molecular target: T4, BRD3(1) (Homo sapiens, UniProt Q15059); test: Isothermal titration calorimetry, BRD3(1); assay type: binding; conditions: for LE (ligand efficiency): LE = ΔG/N, N number of non-hydrogen atoms
T4 construct: Fragments were tested in a thermal shift assay against bromodomains of the BET subfamily; made in house
T4 sequence (Q15059 34-140 limits assumed): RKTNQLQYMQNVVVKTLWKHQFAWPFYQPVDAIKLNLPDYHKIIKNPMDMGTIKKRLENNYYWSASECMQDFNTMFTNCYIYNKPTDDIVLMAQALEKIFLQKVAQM
Procedure: as §1

[5] = molecular target: T5, PB1(5) (Homo sapiens, UniProt Q86U86); test: Protein stability (thermal) shift assay, PB1(5); assay type: binding; conditions: compound 10 μM, protein 2 μM; average of triplicate
T5 construct: made in house
T5 sequence (Q86U86 653-763 limits assumed): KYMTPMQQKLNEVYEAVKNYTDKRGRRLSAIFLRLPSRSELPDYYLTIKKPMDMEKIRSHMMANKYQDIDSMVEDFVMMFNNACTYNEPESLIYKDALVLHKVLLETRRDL

[6] = molecular target: T6, BRD2(1) (Homo sapiens, UniProt P25440); test: Isothermal titration calorimetry, BRD2(1); assay type: binding; conditions: for Kd / TΔS / ΔG / N (stoichiometry) / ΔHobs: ITC, 15 °C; for Kd: 50 mM HEPES pH 7.5, 150 mM NaCl, triplicate; for Kd / N (stoichiometry) / ΔHobs: reverse titration; for LE (ligand efficiency): LE = ΔG/N, N number of non-hydrogen atoms
T6 construct: Fragments were tested in a thermal shift assay against bromodomains of the BET subfamily; made in house
T6 sequence (P25440 74-180 limits assumed): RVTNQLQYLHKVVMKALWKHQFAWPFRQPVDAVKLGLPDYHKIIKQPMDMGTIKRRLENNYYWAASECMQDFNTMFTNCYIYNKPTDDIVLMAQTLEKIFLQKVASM
Procedure: as §1

[7] = molecular target: T7, BRD9 (Homo sapiens, UniProt Q9H8M2); test: Isothermal titration calorimetry, BRD9; assay type: binding; conditions: for Kd: 50 mM HEPES pH 7.5, 150 mM NaCl, triplicate, read-out: KD; for Kd / N (stoichiometry) / ΔHobs: reverse titration; for LE (ligand efficiency): LE = ΔG/N, N number of non-hydrogen atoms
T7 construct: made in house
T7 sequence (Q9H8M2 136-240 limits assumed): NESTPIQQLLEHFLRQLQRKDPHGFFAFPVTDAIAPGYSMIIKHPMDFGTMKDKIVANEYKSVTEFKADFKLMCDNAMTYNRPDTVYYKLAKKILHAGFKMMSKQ

[8] = 50 mM HEPES pH 7.5, 150 mM NaCl, 15 °C, reverse titration, triplicate, read-out: KD
[9] = read-out: dissociation constant

ΔTm at 10 µM [2]	Kd [3, 8]	TΔS ([3]; 15 °C)	ΔG ([3]; 15 °C)	N (stoichiometry) ([3]; 15 °C, reverse titration)	ΔHobs ([3]; 15 °C, reverse titration)	Kd [3, 9]	LE (ligand efficiency) [3]	TΔS ([4]; ITC, 15 °C)	ΔG ([4]; ITC, 15 °C)	N (stoichiometry) ([4]; ITC, 15 °C, reverse titration)	ΔHobs ([4]; ITC, 15 °C, reverse titration)	LE (ligand efficiency) [4]	ΔTm at 10 µM [5]	Kd [6]	TΔS [6]	ΔG [6]	N (stoichiometry) [6]	ΔHobs [6]	SMILES	displacement of full-length BRD4 from histone H3.3 (in words) [1]	also measured
0.6 °C	4650 ± 197 nM	0.94 kcal/mol	–7.03 kcal/mol	0.99 ± 0.018	–6.09 ± 0.14 kcal/mol	4700 nM and 4650 nM	0.37	0.33 kcal/mol	–7.50 kcal/mol	1.01 ± 0.009	–7.17 ± 0.09 kcal/mol	0.39	1.6 °C	4440 ± 162 nM	0.44 kcal/mol	–7.06 kcal/mol	0.99 ± 0.011	–6.62 ± 0.09 kcal/mol	COc1ccc(Br)cc1-c1nc(N)nc2[nH]cnc12 [Compound 7d, 2-Amino-6-(5-bromo-2-methoxyphenyl)-9H-purine]	fail to elicit the same effect; also recorded: not completely displaced; also recorded: failing to displace	Kd ([4]; ITC, 50 mM HEPES pH 7.5, 150 mM NaCl, 15 °C, reverse titration, triplicate): 2040 ± 105 nM; LE (ligand efficiency) [6]: 0.37; Kd ([7]; ITC, 15 °C): 397 ± 19 nM; ΔG ([7]; ITC, 15 °C): –8.45 kcal/mol; N (stoichiometry) ([7]; ITC, 15 °C): 0.97 ± 0.005; ΔHobs ([7]; ITC, 15 °C): –9.63 ± 0.06 kcal/mol; LE (ligand efficiency) [7]: 0.44
2.8 °C	1370 ± 29 nM	1.34 kcal/mol	–7.73 kcal/mol	1.09 ± 0.002	–6.39 ± 0.02 kcal/mol	1400 nM and 1370 nM	0.39	0.33 kcal/mol	–7.50 kcal/mol	1.01 ± 0.009	–7.17 ± 0.09 kcal/mol	0.38	0.8 °C	1420 ± 60 nM	2.06 kcal/mol	–7.71 kcal/mol	1.02 ± 0.006	–5.65 ± 0.04 kcal/mol	Nc1nc(-c2cc(Br)cc3c2OCC3)c2nc[nH]c2n1 [Compound 11, 2-Amino-6-(5-bromo-2,3-dihydrobenzo[b]furan-7-yl)-9H-purine]	fail to elicit the same effect; also recorded: not completely displaced; also recorded: failing to displace	LE (ligand efficiency) [6]: 0.39; Kd ([7]; ITC, 15 °C): 278 ± 15 nM; TΔS ([7]; ITC, 15 °C): –1.63 kcal/mol; ΔG ([7]; ITC, 15 °C): –8.65 kcal/mol; N (stoichiometry) ([7]; ITC, 15 °C): 1.03 ± 0.003; ΔHobs ([7]; ITC, 15 °C): –10.28 ± 0.04 kcal/mol; LE (ligand efficiency) [7]: 0.43
